Assay results: patent US4312867A, “Antibacterial compounds, processes for their preparation and compositions containing them” (Beecham Group Limited, priority 1979, dated 1982)
Converted amounts (≈) assume the structure as drawn. Like-named read-outs stand apart in the source and are kept apart here.

Legend:
E. coli NCTC 10418 [1] = assay: MIC human bacteria (Table 1), serial dilution in nutrient agar; format: cell-based; conditions: Escherichia coli, NCTC10418; E. coli NCTC 10418; nutrient agar with 5% chocolated horse blood; read-out: MIC
E. coli ESS = assay: as above; format: cell-based; conditions: Escherichia coli; E. coli ESS; nutrient agar with 5% chocolated horse blood; read-out: MIC
P. mirabilis 889 = assay: as above; format: cell-based; conditions: Proteus mirabilis; P. mirabilis 889; nutrient agar with 5% chocolated horse blood; read-out: MIC
K. aerogenes A = assay: as above; format: cell-based; conditions: Klebsiella aerogenes, nutrient agar with 5% chocolated horse blood
Ps. aeruginosa 10662 = assay: as above; format: cell-based; conditions: Pseudomonas aeruginosa, nutrient agar with 5% chocolated horse blood
[2] = tested on: Pasteurella multocida 1633; assay: as above; format: cell-based
[3] = tested on: Haemophilus influenzae Q1; assay: as above; format: cell-based
[4] = tested on: Haemophilus influenzae Wy21; assay: as above; format: cell-based
[5] = tested on: Neisseria catarrhalis 1502; assay: as above; format: cell-based; conditions: nutrient agar with 5% chocolated horse blood
Bacillus subtilis 6633 = assay: as above; format: cell-based; conditions: nutrient agar with 5% chocolated horse blood
[6] = tested on: Corynebacterium xerosis 9755; assay: as above; format: cell-based; conditions: nutrient agar with 5% chocolated horse blood
Sarcina lutea 8340 = assay: as above; format: cell-based; conditions: nutrient agar with 5% chocolated horse blood
Staph aureus Oxford [7] = assay: as above; format: cell-based; conditions: Staphylococcus aureus, nutrient agar with 5% chocolated horse blood
Staph aureus Russell = assay: as above; format: cell-based; conditions: Staphylococcus aureus, nutrient agar with 5% chocolated horse blood
Staph aureus W2827 = assay: as above; format: cell-based; conditions: Staphylococcus aureus, nutrient agar with 5% chocolated horse blood
Strep faecalis I = assay: as above; format: cell-based; conditions: nutrient agar with 5% chocolated horse blood
Strep pyogenes A 64/848 = assay: as above; format: cell-based; conditions: nutrient agar with 5% chocolated horse blood
Strep pyogenes B 2788 = assay: as above; format: cell-based; conditions: nutrient agar with 5% chocolated horse blood
Strep pyogenes C 2761 = assay: as above; format: cell-based; conditions: nutrient agar with 5% chocolated horse blood
Strep pneumoniae CN33 = assay: as above; format: cell-based; conditions: nutrient agar with 5% chocolated horse blood
E. coli NCTC 10418 [8] = assay: MIC veterinary bacteria (Table 2), serial dilution in agar; format: cell-based; conditions: Escherichia coli, NCTC10418; E. coli NCTC 10418; diagnostic sensitivity test agar; read-out: MIC
E. coli E1 = assay: as above; format: cell-based; conditions: Escherichia coli, diagnostic sensitivity test agar
S. dublin S7 = assay: as above; format: cell-based; conditions: Salmonella enterica, diagnostic sensitivity test agar
S. typhimurium S18 = assay: as above; format: cell-based; conditions: Salmonella enterica, diagnostic sensitivity test agar
Bord bronchiseptica B08 = assay: as above; format: cell-based; conditions: diagnostic sensitivity test agar
Bord bronchiseptica B09 = assay: as above; format: cell-based; conditions: diagnostic sensitivity test agar
Past multocida PA1 = assay: as above; format: cell-based; conditions: diagnostic sensitivity test agar
Past multocida PA2 = assay: as above; format: cell-based; conditions: diagnostic sensitivity test agar
[9] = tested on: Erysipelothrix rhusiopathiae NCTC 8163; assay: as above; format: cell-based; conditions: NCTC8163
[10] = tested on: Corynebacterium pyogenes CY1; assay: as above; format: cell-based; conditions: Trueperella pyogenes, diagnostic sensitivity test agar
[11] = tested on: Staph aureus B4 (pen. resis); assay: as above; format: cell-based; conditions: Staphylococcus aureus; Staph aureus B4 (pen. resis); diagnostic sensitivity test agar; read-out: MIC
[12] = tested on: Staph aureus 152 (pen. sens); assay: as above; format: cell-based; conditions: Staphylococcus aureus, diagnostic sensitivity test agar
Staph aureus Oxford [13] = assay: as above; format: cell-based; conditions: Staphylococcus aureus; Staph aureus Oxford; diagnostic sensitivity test agar; read-out: MIC
[14] = tested on: Strep suis (group D) SPS11; assay: as above; format: cell-based; conditions: diagnostic sensitivity test agar
Strep uberis SPU1 = assay: as above; format: cell-based; conditions: diagnostic sensitivity test agar
Strep dysgalaciae SPD1 = assay: as above; format: cell-based; conditions: diagnostic sensitivity test agar
Strep agalactiae SPA1 = assay: as above; format: cell-based; conditions: diagnostic sensitivity test agar
[15] = tested on: M. suipneumoniae J2206/183b; assay: anti-mycoplasmal MIC, Friis broth solidified with agarose (Table 4); format: cell-based; conditions: Mesomycoplasma hyopneumoniae, 144 h, 6 days at 37° C.
[16] = tested on: M. suipneumoniae PW/C/210; assay: as above; format: cell-based; conditions: Mesomycoplasma hyopneumoniae, 144 h, 6 days at 37° C.
M. bovis NCTC 10131 = assay: microbe, parasite or virus in culture; format: cell-based; conditions: NCTC10131, 144 h
M. pneumoniae ATCC 15492 = assay: anti-mycoplasmal MIC, Friis broth solidified with agarose (Table 4); format: cell-based; conditions: Mycoplasmoides pneumoniae, ATCC15492, 144 h, 6 days at 37° C.
[17] = Serum binding by ultrafiltration of porcine serum; format: in vitro ADME; conditions: pig, 8 mcg/ml, microbiological assay, read-out: % bound to pig serum (converted)
Description: Serum binding was assessed by ultrafiltration of porcine serum containing compounds at 8 mcg/ml, and through an Amicon CF50A ultrafiltration cone. Separation of ultrafiltrate was achieved by centrifugation. Unbound concentrations of compound were measured in the ultrafiltrate by microbiological assay (B. subtilis ATCC 6633) against standards prepared in saline.

C/C(=C\C(=O)OC(C)CCCCCS(N)(=O)=O)CC1OCC(CC2OC2C(C)C(C)O)C(O)C1O (stereo not drawn) [Example 5, 7-Sulphamoylhept-2-yl monate A]
MIC (E. coli NCTC 10418 [1]): > 100 µg/mL | MIC (E. coli ESS): 2.5 µg/mL (≈ 4.79 µM) | MIC (P. mirabilis 889): > 100 µg/mL | MIC (K. aerogenes A): > 100 µg/mL | MIC (Ps. aeruginosa 10662): > 100 µg/mL | MIC ([2]; Pasteurella multocida 1633, nutrient agar with 5% chocolated horse blood, read-out: MIC): 2.5 µg/mL (≈ 4.79 µM) | MIC ([3]; Haemophilus influenzae Q1, nutrient agar with 5% chocolated horse blood, read-out: MIC): 0.2 µg/mL (≈ 0.383 µM) | MIC ([4]; Haemophilus influenzae Wy21, nutrient agar with 5% chocolated horse blood, read-out: MIC): 0.2 µg/mL (≈ 0.383 µM) | MIC [5]: 1 µg/mL (≈ 1.92 µM) | MIC (Bacillus subtilis 6633): 2.5 µg/mL (≈ 4.79 µM) | MIC [6]: No Growth | MIC (Sarcina lutea 8340): No Growth | MIC (Staph aureus Oxford [7]): 10 µg/mL (≈ 19.2 µM) | MIC (Staph aureus Russell): 10 µg/mL (≈ 19.2 µM) | MIC (Staph aureus W2827): 25 µg/mL (≈ 47.9 µM) | MIC (Strep faecalis I): > 100 µg/mL | MIC (Strep pyogenes A 64/848): 2.5 µg/mL (≈ 4.79 µM) | MIC (Strep pyogenes B 2788): 2.5 µg/mL (≈ 4.79 µM) | MIC (Strep pyogenes C 2761): 2.5 µg/mL (≈ 4.79 µM) | MIC (Strep pneumoniae CN33): 1 µg/mL (≈ 1.92 µM) | MIC (E. coli NCTC 10418 [8]): > 80 µg/mL | MIC (E. coli E1): > 80 µg/mL | MIC (S. dublin S7): > 80 µg/mL | MIC (S. typhimurium S18): > 80 µg/mL | MIC (Bord bronchiseptica B08): 40 µg/mL (≈ 76.7 µM) | MIC (Bord bronchiseptica B09): 10 µg/mL (≈ 19.2 µM) | MIC (Past multocida PA1): 0.625 µg/mL (≈ 1.2 µM) | MIC (Past multocida PA2): 0.312 µg/mL (≈ 0.598 µM) | MIC ([9]; Erysipelothrix rhusiopathiae): 40 µg/mL (≈ 76.7 µM) | MIC [10]: 80 µg/mL (≈ 153 µM) | MIC [11]: 5 µg/mL (≈ 9.58 µM) | MIC [12]: 1.25 µg/mL (≈ 2.4 µM) | MIC (Staph aureus Oxford [13]): 1.25 µg/mL (≈ 2.4 µM) | MIC [14]: 5 µg/mL (≈ 9.58 µM) | MIC (Strep uberis SPU1): 0.625 µg/mL (≈ 1.2 µM) | MIC (Strep dysgalaciae SPD1): 0.625 µg/mL (≈ 1.2 µM) | MIC (Strep agalactiae SPA1): 1.25 µg/mL (≈ 2.4 µM) | MIC [15]: 500 µg/mL (≈ 958 µM) | MIC [16]: 250 µg/mL (≈ 479 µM) | MIC (M. bovis NCTC 10131): ≤ 10 µg/mL | MIC (M. pneumoniae ATCC 15492): 1000 µg/mL (≈ 1920 µM) | fraction unbound [17]: 0.354

C/C(=C\C(=O)OCCCS(=O)(=O)N(C)C)CC1OCC(CC2OC2C(C)C(C)O)C(O)C1O (stereo not drawn) [Example 4, 3-N,N-Dimethylsulphamoylpropyl monate A]
MIC (E. coli NCTC 10418 [1]): > 100 µg/mL | MIC (E. coli ESS): 2.5 µg/mL (≈ 5.06 µM) | MIC (P. mirabilis 889): > 100 µg/mL | MIC (K. aerogenes A): > 100 µg/mL | MIC (Ps. aeruginosa 10662): > 100 µg/mL | MIC ([2]; Pasteurella multocida, 1633): 0.5 µg/mL (≈ 1.01 µM) | MIC ([3]; Haemophilus influenzae, Q1): 0.1 µg/mL (≈ 0.203 µM) | MIC ([4]; Haemophilus influenzae, WY21): 0.1 µg/mL (≈ 0.203 µM) | MIC [5]: 1 µg/mL (≈ 2.03 µM) | MIC (Bacillus subtilis 6633): 2.5 µg/mL (≈ 5.06 µM) | MIC [6]: No Growth | MIC (Sarcina lutea 8340): No Growth | MIC (Staph aureus Oxford [7]): 10 µg/mL (≈ 20.3 µM) | MIC (Staph aureus Russell): 10 µg/mL (≈ 20.3 µM) | MIC (Staph aureus W2827): 10 µg/mL (≈ 20.3 µM) | MIC (Strep faecalis I): > 100 µg/mL | MIC (Strep pyogenes A 64/848): 2.5 µg/mL (≈ 5.06 µM) | MIC (Strep pyogenes B 2788): 2.5 µg/mL (≈ 5.06 µM) | MIC (Strep pyogenes C 2761): 5 µg/mL (≈ 10.1 µM) | MIC (Strep pneumoniae CN33): 1 µg/mL (≈ 2.03 µM) | MIC (E. coli NCTC 10418 [8]): > 80 µg/mL | MIC (E. coli E1): > 80 µg/mL | MIC (S. dublin S7): > 80 µg/mL | MIC (S. typhimurium S18): > 80 µg/mL | MIC (Bord bronchiseptica B08): 80 µg/mL (≈ 162 µM) | MIC (Bord bronchiseptica B09): 20 µg/mL (≈ 40.5 µM) | MIC (Past multocida PA1): 0.625 µg/mL (≈ 1.27 µM) | MIC (Past multocida PA2): 0.312 µg/mL (≈ 0.632 µM) | MIC ([9]; Erysipelothrix rhusiopathiae NCTC 8163, diagnostic sensitivity test agar, read-out: MIC): > 80 µg/mL | MIC [10]: > 80 µg/mL | MIC [11]: 5 µg/mL (≈ 10.1 µM) | MIC [12]: 2.5 µg/mL (≈ 5.06 µM) | MIC (Staph aureus Oxford [13]): 2.5 µg/mL (≈ 5.06 µM) | MIC [14]: 40 µg/mL (≈ 81 µM) | MIC (Strep uberis SPU1): 2.5 µg/mL (≈ 5.06 µM) | MIC (Strep dysgalaciae SPD1): 2.5 µg/mL (≈ 5.06 µM) | MIC (Strep agalactiae SPA1): 2.5 µg/mL (≈ 5.06 µM) | MIC [15]: 1000 µg/mL (≈ 2030 µM) | MIC [16]: 500 µg/mL (≈ 1010 µM) | MIC (M. bovis NCTC 10131): ≤ 10 µg/mL | MIC (M. pneumoniae ATCC 15492): 5000 µg/mL (≈ 10100 µM) | fraction unbound [17]: 0.053
